Experiment: Toxicity at 30 mg/kg (In vivo Efficacy and Safety Profile)

With `CN(C)Cc1ccc2c(Cl)cc(Cl)c(O)c2n1.Cl` [compound 1033, 5,7-Dichloro-2-dimethylaminomethyl-quinolin-8-ol hydrochloride] the “Toxicity at 30 mg/kg” value was “None”.

Source: patent US9302993B2, “8-hydroxy quinoline derivatives” (PRANA BIOTECHNOLOGY LIMITED, priority 2002, dated 2016)
